Article PMC7044277 (Nature Communications, 2020)
Where “and” joins values, the source holds several entries; their conditions need not be identical. Identical values can stand only once.

Columns and labels:
Type in all cases: cell-based
320 non-olfactory GPCRs [1] = biological target: T1, 320 non-olfactory GPCRs (Homo sapiens, UniProt P25105); conditions: receptor PTAFR; replicate values, Fig_4g
T1 construct: expressed in transfected cells; host or cells: HTLA cells

320 non-olfactory GPCRs [2] = biological target: T2, 320 non-olfactory GPCRs (Homo sapiens, UniProt P41180)
T2 construct: expressed in transfected cells; host or cells: HTLA cells

320 non-olfactory GPCRs [3] = biological target: T3, 320 non-olfactory GPCRs (Homo sapiens, UniProt Q02643)
T3 construct: expressed in transfected cells; host or cells: HTLA cells

320 non-olfactory GPCRs [4] = biological target: T4, 320 non-olfactory GPCRs (Homo sapiens, UniProt Q9HBW9)
T4 construct: expressed in transfected cells; host or cells: HTLA cells
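For Fold of Basal in this document: compound tested at 1 µM final concentration.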
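For GPCRome agonism screen response in this document: fold over basal response of each receptor without drug.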

T3 sequence (Q02643 23-423): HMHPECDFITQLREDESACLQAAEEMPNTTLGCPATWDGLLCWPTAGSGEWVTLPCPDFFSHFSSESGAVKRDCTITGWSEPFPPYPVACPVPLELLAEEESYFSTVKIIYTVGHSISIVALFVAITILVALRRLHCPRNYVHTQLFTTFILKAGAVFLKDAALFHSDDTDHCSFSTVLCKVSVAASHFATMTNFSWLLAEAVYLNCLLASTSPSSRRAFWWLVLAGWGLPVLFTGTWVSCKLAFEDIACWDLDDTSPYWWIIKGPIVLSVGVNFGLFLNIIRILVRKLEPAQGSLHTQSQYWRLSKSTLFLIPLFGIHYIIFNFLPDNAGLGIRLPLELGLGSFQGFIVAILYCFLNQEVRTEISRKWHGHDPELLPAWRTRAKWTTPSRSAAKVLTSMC
T1 sequence (P25105 whole entry): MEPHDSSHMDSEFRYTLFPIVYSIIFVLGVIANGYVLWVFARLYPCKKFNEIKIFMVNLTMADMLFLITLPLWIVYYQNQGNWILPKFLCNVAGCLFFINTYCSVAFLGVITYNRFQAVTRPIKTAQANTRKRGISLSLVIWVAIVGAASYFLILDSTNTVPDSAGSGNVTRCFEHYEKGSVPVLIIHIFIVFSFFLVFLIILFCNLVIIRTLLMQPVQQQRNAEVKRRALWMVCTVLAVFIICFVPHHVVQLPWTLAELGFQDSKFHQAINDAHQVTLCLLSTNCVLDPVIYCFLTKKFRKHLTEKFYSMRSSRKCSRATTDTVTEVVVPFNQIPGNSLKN
T4 sequence (Q9HBW9 20-690): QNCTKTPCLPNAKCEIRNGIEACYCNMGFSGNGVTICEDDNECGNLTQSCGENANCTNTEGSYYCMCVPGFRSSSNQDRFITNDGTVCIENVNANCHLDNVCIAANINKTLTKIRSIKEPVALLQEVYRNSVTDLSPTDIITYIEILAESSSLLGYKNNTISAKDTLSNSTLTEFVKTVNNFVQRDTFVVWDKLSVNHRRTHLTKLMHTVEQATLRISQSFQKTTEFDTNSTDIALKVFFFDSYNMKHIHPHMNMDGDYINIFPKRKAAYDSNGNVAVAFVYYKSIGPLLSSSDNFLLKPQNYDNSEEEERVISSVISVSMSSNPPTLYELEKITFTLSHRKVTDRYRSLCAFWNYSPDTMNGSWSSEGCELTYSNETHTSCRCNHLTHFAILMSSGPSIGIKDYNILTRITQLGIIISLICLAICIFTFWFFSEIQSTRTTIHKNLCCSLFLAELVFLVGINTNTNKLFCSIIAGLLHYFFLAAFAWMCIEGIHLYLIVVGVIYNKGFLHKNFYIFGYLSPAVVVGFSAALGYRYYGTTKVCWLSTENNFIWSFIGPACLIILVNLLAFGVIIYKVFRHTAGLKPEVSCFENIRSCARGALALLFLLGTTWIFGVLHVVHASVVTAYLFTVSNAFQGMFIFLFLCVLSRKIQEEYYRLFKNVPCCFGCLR
T2 sequence (P41180 20-1078): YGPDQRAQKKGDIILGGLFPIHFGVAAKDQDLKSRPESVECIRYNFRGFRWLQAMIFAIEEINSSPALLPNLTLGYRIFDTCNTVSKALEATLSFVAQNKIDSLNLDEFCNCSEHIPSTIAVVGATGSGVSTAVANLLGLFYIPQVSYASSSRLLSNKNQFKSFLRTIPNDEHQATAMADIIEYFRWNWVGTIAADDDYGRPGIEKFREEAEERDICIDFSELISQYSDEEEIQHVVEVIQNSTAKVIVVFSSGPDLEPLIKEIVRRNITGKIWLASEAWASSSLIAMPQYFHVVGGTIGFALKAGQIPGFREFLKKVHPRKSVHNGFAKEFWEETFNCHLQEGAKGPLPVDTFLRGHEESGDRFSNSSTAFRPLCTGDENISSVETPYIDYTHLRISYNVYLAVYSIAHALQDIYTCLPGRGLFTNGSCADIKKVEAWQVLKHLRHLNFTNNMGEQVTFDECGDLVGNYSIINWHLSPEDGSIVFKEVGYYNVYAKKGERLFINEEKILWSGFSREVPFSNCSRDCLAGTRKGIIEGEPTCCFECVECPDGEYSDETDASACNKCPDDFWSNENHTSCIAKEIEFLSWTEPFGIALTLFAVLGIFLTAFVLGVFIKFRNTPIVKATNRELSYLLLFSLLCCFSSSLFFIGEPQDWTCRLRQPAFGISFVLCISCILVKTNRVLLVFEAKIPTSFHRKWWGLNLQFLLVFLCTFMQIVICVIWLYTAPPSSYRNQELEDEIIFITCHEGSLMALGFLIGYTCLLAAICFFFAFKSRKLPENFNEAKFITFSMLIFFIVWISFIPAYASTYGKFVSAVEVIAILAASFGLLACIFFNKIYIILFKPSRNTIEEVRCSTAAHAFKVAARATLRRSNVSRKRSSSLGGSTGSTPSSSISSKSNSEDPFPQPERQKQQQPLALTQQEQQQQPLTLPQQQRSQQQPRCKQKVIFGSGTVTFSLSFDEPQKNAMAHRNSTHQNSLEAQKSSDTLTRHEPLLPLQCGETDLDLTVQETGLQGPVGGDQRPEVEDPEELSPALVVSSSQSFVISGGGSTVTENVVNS

## CCOc1cccc2cc(C(C)NCC3(O)CCCCC3)oc12 (stereo not shown) [O4LE6]
320 non-olfactory GPCRs [1]
  GPCRome agonism screen response: 0.04948 and 0.5552 and 0.8041
320 non-olfactory GPCRs [2]
  Fold of Basal: 0.9783 and 1.253 and 1.231 and 1.397
320 non-olfactory GPCRs [3]
  Fold of Basal: 1.559 and 1.547 and 1.735 and 1.472
320 non-olfactory GPCRs [4]
  Fold of Basal: 1.158 and 1.093 and 1.161 and 0.9931
